Legend:
[1] = test system: human TERT expression (hTERT mRNA transcripts); assay: Quantitative real-time RT-PCR of hTERT mRNA transcripts in compound-treated cells; assay type: cell-based
From the text: Telomerase is a ribonucleoprotein complex composed of the catalytic protein subunit (human telomerase reverse transcriptase or hTERT) and the RNA template. hTERT expression level can be measured by PCR.
Quantitative Reverse Transcription PCR can be run according to procedures outlined in Yajima et al. (Yajima, T. et al. Quantitative Reverse Transcription-PCR Assay of the RNA Component of Human Telomerase Using the TaqMan Fluorogenic Detection System Clinical Chemistry, 44:12, 2441-2445, 1998).
The principle of real-time PCR was first described by Heid et al. (Heid C. A., Stevens J., Livak K. J., Williams P. M. Real time quantitative PCR. Genome Res., 6: 986-994, 1996). Briefly, amplification of the target sequence is monitored per PCR cycle by detecting the fluorescence signal emitted by an internal probe that is degraded by the 5′ nuclease activity of the Taq polymerase. The emission signal accumulates in each sample, and the Ct required to reach a given fluorescence threshold is determined (Ct stands for Cycle Threshold and is a measure of the number of PCR cycles that are required to amplify a target—thus, a lower Ct score means that there is more abundant hTERT mRNA). Thus, the C1 value of a sample inversely correlates to the quantity of the starting cDNA which correlates to the number of mRNA transcripts. Using the cDNA of known quantity, a standard curve can be generated and used to determine the starting amount of mRNA transcripts based on the […] of each sample.
Quantitative real-time PCR can be done on cDNA from test compound-treated and nontreated cells by use of a ABI Prism 7900 Sequence Detection System (PE Applied Biosystems, Foster City, CA) following the Assays-on-Demand protocol (PE Applied Biosystems, Foster City, CA). Quantitative data can be analyzed using the Sequence Detection System software version 2.1 (PE Applied Biosystems).
The following compounds were tested in assays designed to identify compounds that enhance human TERT expression. The compounds turned on human TERT expression in these assays.

viable cells in culture = assay: Cell viability assay (CellTiter-Glo Luminescent Cell Viability Assay, ATP quantitation); assay type: cell-based; conditions: percent of DMSO vehicle control
Protocol: Cell viability is determined using a homogeneous method, such as CellTiter-Glo® Luminescent Cell Viability Assay (Promega Corporation, Madison, WI) to determine the number of viable cells in culture These assays are based on quantitation of the ATP present, which signals the presence of metabolically active cells. Luminescent values of compound treated cells are compared to that of cells treated with vehicle alone to determine the average cell viability as a percent of control.
Note: test concentration or dose not given here.

Row | SMILES | Average Number of hTERT Transcripts [1] | Average Cell Viability after 24 Hours (% DMSO) (viable cells in culture)
1 | Oc1c(CN2CCN(c3cccc(Cl)c3)CC2)cc(Br)c2cccnc12 [Compound 1002] | 14.79 | 57.7 % DMSO
2 | COc1cc(C(Nc2ccccn2)c2ccc3cccnc3c2O)cc(Br)c1OC (stereo not shown) [Compound 1005] | 55.17 | 64.8 % DMSO
3 | Oc1c(C(Nc2ccccn2)c2ccccc2Br)ccc2cccnc12 (stereo not shown) [Compound 1007] | 18.02 | 68 % DMSO
4 | CCN(CC)c1ccc(C(NC(=O)C(C)C)c2cc(Cl)c3cccnc3c2O)cc1 (stereo not shown) [Compound 1011] | 14.2 | 64.5 % DMSO
5 | Oc1c(I)cc(I)c2cccnc12 [Compound 1018] | 105.41 | 56.9 % DMSO
6 | Oc1c(Cl)cc(Cl)c2cccnc12 [Compound 1020] | 45.03 | 25.1 % DMSO
7 | CC(=O)NC(c1ccccc1Cl)c1ccc2cccnc2c1O (stereo not shown) [Compound 1025] | 113.98 | 93.5 % DMSO
8 | CCC(=O)NC(c1ccc(OC)c(OC)c1)c1cc([N+](=O)[O-])c2cccnc2c1O (stereo not shown) [Compound 1028] | 65.66 | 80.69 % DMSO
9 | O=[N+]([O-])c1cc(CN2CCN(c3ccccc3)CC2)c(O)c2ncccc12 [Compound 1029] | 5.3 | 32 % DMSO
10 | COc1ccc(C(NC(C)=O)c2cc(Cl)c3cccnc3c2O)cc1OC (stereo not shown) [Compound 1038] | 28.95 | 80.33 % DMSO
11 | O=C(NC(c1ccc(Cl)cc1)c1ccc2cccnc2c1O)C1CCCCC1 (stereo not shown) [Compound 1045] | 13.86 | 60.3 % DMSO
12 | CCCCC(=O)NC(c1ccc2c(c1)OCO2)c1cc([N+](=O)[O-])c2cccnc2c1O (stereo not shown) [Compound 1046] | 158.46 | 78 % DMSO
13 | CC(=O)NC(c1cccs1)c1cc(Cl)c2cccnc2c1O (stereo not shown) [Compound 1052] | 12.07 | 60.8 % DMSO
14 | O=C(NC(c1ccc2c(c1)OCO2)c1cc([N+](=O)[O-])c2cccnc2c1O)C1CCCCC1 (stereo not shown) [Compound 1068] | 21.41 | 61.2 % DMSO
15 | COc1ccc(C(NC(=O)C(C)C)c2cc([N+](=O)[O-])c3cccnc3c2O)cc1 (stereo not shown) [Compound 1073] | 103.42 | 80.1 % DMSO
16 | CCCCC(=O)NC(c1ccc(O)c(OCC)c1)c1cc([N+](=O)[O-])c2cccnc2c1O (stereo not shown) [Compound 1075] | 83.26 | 82.63 % DMSO
17 | Cc1cc(C)n(-c2ccc3c(Cl)cc(Cl)c(O)c3n2)n1 [Compound 1079] | 98.36 | 71.22 % DMSO
18 | Cc1ccnc(NC(c2ccc([N+](=O)O)cc2)c2ccc3ccc(C)nc3c2O)c1 (stereo not shown) [Compound 1081] | 18.87 | 70.69 % DMSO
19 | Cc1ccnc(NC(c2cccc([N+](=O)O)c2)c2ccc3ccc(C)nc3c2O)c1 (stereo not shown) [Compound 1084] | 11.54 | 65.08 % DMSO
20 | Cc1ccc(S(=O)(=O)Nc2ccc(O)c3ncccc23)cc1 [Compound 1091] | 91.89 | 94.3 % DMSO

Row | SMILES | Average Number of hTERT Transcripts [1] | Average Cell Viability after 24 Hours (% DMSO) (viable cells in culture)
21 | Cc1ccc(S(=O)(=O)Nc2cc(S(=O)(=O)c3ccc(C)cc3)c(O)c3ncccc23)cc1 [Compound 1093] | 160.48 | 66.5 % DMSO
22 | Oc1c(C(Nc2ccccc2Cl)c2ccccn2)ccc2cccnc12 (stereo not shown) [Compound 1095] | 3.46 | 
23 | CCN(CC)Cc1ccc(O)c2ncccc12 [Compound 1096] | 48.25 | 
24 | COCc1cc(CN2CCCC2)c(O)c2ncccc12 [Compound 1097] | 77.36 | 
25 | COCc1cc(CN2CCCCC2)c(O)c2ncccc12 [Compound 1098] | 102.7 | 
26 | CCOCc1cc(CN2CCCCC2)c(O)c2ncccc12 [Compound 1099] | 67.59 | 
27 | CCCOCc1cc(CN2CCCCC2)c(O)c2ncccc12 [Compound 1100] | 9.12 | 56.1 % DMSO
28 | CCCOCc1cc(CN2CCN(C)CC2)c(O)c2ncccc12 [Compound 1101] | 24.8 | 
29 | CC(C)OCc1cc(CN2CCCCC2)c(O)c2ncccc12 [Compound 1102] | 351.44 | 
30 | CC1CCN(Cc2cc(COC(C)C)c3cccnc3c2O)CC1 [Compound 1103] | 70.5 | 
31 | Cc1cc(NC(c2ccccn2)c2ccc3cccnc3c2O)no1 (stereo not shown) [Compound 1104] | 19.27 | 
32 | Cc1ccc2c(I)cc(I)c(O)c2n1 [Compound 1105] | 51.56 | 
33 | O=S1(=O)CCC(N2COc3c(cc(Cl)c4cccnc34)C2)C1 (stereo not shown) [Compound 1107] | 7.97 | 
34 | Cc1ccc2ccc(C(Nc3ccccn3)c3ccccc3Br)c(O)c2n1 (stereo not shown) [Compound 1108] | 31.13 | 
35 | O=C(CCc1ccccc1)NC(c1ccc(Cl)cc1)c1ccc2cccnc2c1O (stereo not shown) [Compound 1109] | 34.36 | 
36 | CC(C)C(=O)NC(c1ccccc1)c1cc([N+](=O)[O-])c2cccnc2c1O (stereo not shown) [Compound 1110] | 35.19 | 
37 | Cc1ccc2ccc(C(Nc3ccccn3)c3ccccc3Cl)c(O)c2n1 (stereo not shown) [Compound 1111] | 35.20 | 
38 | COc1ccc(C(NC(=O)C(C)C)c2cc([N+](=O)[O-])c3cccnc3c2O)cc1OC (stereo not shown) [Compound 1112] | 58.99 | 
39 | Oc1ccc(CN2CCN(c3cccc(Cl)c3)CC2)c2cccnc12 [Compound 1113] | 29.15 | 
